Experimental data published in patent US10568317B2 (Biomatrica, Inc., priority 2015, dated 2020).

Legend:
Assay type in all cases: cell-based
[1] = tested on: erythrocytes in whole blood; assay: Erythrocyte sedimentation in whole blood: sucralose concentration and other saccharides, visual analysis (Example 2); conditions: K2EDTA blood, 1 hour and 6 hours
Protocol: Fresh blood was collected into BD K2EDTA VACUTAINER® tubes and pooled. 952 μL of fresh blood was aliquot into 2 mL centrifuge tubes, each containing 48 μL of sucralose at the indicated concentration in FIG. 2, or the indicated saccharide (ML848, a di-chlorinated monosaccharide, or DG783, a mono-fluorinated monosaccharide) at the indicated concentration. Sucralose solutions of different concentrations were prepared by dilution of 0.5 M sucralose to 10 mM in water. […] 48 μL of PBS and 0.9% saline served as controls. Final concentrations of sucralose or the indicated saccharide shown in FIG. 2 were as follows (from left to right): 24 mM sucralose, 12 mM sucralose, 6.24 mM sucralose, 2.88 mM sucralose, 1.44 mM sucralose, 0.96 mM sucralose, 0.48 mM sucralose, 24 mM sucrose, 2.4 mM sucrose, 24 mM trehalose, 24 mM melezitose, 4.8 mM ML848, and 24 mM DG783.
(§1) The filled centrifuge tubes were gently inverted five times to mix and stored upright on the benchtop at approximately 25° C. Tubes were photographed at 1 hour (FIG. 2, upper panel) and 6 hours (FIG. 2, center panel) against a white background for visual analysis of sedimentation rate. After 7 hours of storage, tubes were centrifuged for 20 min at 3000 rpm to determine the effect of hemolysis on sedimentation rate by visual analysis (FIG. 2, lower panel).

[2] = tested on: erythrocytes in whole blood; assay: Erythrocyte sedimentation in whole blood after addition of sucralose solution, visual analysis (Example 1); conditions: about 24 mM sucralose (0.5 M solution, blood:solution 20:1), K2EDTA blood, ambient temperature, 6 hours and 24 hours
Protocol: Fresh blood was collected into BD K2EDTA VACUTAINER® tubes and pooled. Blood and a solution of 0.5 M sucralose were mixed at a ratio of 20:1 by aliquotting 952 μL of fresh blood into 2 mL centrifuge tubes containing 48 μL of formulation, resulting in a concentration of about 24 mM sucralose. 48 μL of PBS and 0.9% saline served as controls. Blood with no formulation (NF) added served as an additional control. The filled centrifuge tubes were gently inverted five times to mix and stored upright on the benchtop at approximately 25° C. Tubes were photographed at 0 hours (FIG. 1A), 6 hours (FIG. 1B), and 24 hours (FIG. 1C) against a white background for visual analysis of sedimentation rate.

[3] = tested on: erythrocytes in whole blood; assay: Hemolysis by centrifugation after 7 hours of storage, visual analysis (Example 2)
Protocol: as §1

[4] = tested on: erythrocytes in whole blood; assay: Erythrocyte sedimentation in whole blood after addition of sucralose powder, visual analysis (Example 3)
Protocol: Fresh blood was collected into BD K2EDTA VACUTAINER® tubes and pooled. 1 mL of fresh blood was aliquotted into 2 mL centrifuge tubes containing sucralose powder. Final concentrations of sucralose ranged from 7.5 mM to 100 mM, corresponding to 3.0 mg to 39.8 mg per mL of blood. The no formulation (NF) control sample received no addition of sucralose. Tubes were inverted at least five times until no visible undissolved material remained at the bottom of the tubes. Tubes were stored upright on the benchtop at approximately 25° C. Tubes were photographed at 1 hour (FIG. 3, upper panel) and 6 hours (FIG. 3, lower panel) against a white background for visual analysis of sedimentation rate.

[5] = tested on: erythrocytes in whole blood; assay: Erythrocyte sedimentation in whole blood collected with different anticoagulants, visual analysis (Example 4); conditions: final 24 mM sucralose; ACD-B, K3EDTA, NaHep, LiHep, NaF, SPS, K2EDTA tubes; 2 hours and 8 hours
Excerpt: To screen for collection conditions, fresh blood was collected into a series of BD VACUTAINER® or Greiner Bio-One VACUETTE® low-volume blood collection tubes containing different anticoagulants, including acid citrate dextrose solution B (ACD-B), tri-potassium ethylenediaminetetraacetic acid (K3EDTA), sodium heparin (NaHep), lithium heparin (LiHep), sodium fluoride (NaF), and sodium polyanethol sulfonate (SPS). Collection into tubes containing di-potassium ethylenediaminetetraacetic acid (K2EDTA) served as a control. 952 μL of fresh blood was aliquot into 2 mL centrifuge tubes containing 48 μL of 0.5 M sucralose or PBS. No formulation (NF) added served as an additional control. The filled centrifuge tubes were gently inverted five times to mix and stored upright on the benchtop at approximately 25° C. Tubes were photographed at 2 hours (FIG. 4, upper panel) and 8 hours (FIG. 4, lower panel) against a white background for visual analysis of sedimentation rate. […] By contrast, addition of PBS had no effect on erythrocyte sedimentation rate.

[6] = tested on: erythrocytes in whole blood; assay: Erythrocyte sedimentation in whole blood: sucralose compared to polyols and halogenated polyols, visual analysis (Example 5); conditions: 0.5 M solution, final 24 mM sucralose, K2EDTA blood, 2 hours
Protocol: Fresh blood was collected into BD K2EDTA VACUTAINER® tubes and pooled. 952 μL of fresh blood was aliquot into 2 mL centrifuge tubes containing 48 μL of a solution of 0.5 M sucralose, the indicated polyol, or the indicated halogenated polyol. Additives at 0.25 M were adjusted to 300 mOsmol with NaCl. PBS and no formulation (NF) added served as controls. The filled centrifuge tubes were gently inverted five times to mix and stored upright on the benchtop at approximately 25° C. Tubes were photographed at 2 hours against a white background for visual analysis of sedimentation rate.

[7] = other saccharides, final: 24 mM and 2.4 mM sucrose, 24 mM trehalose, 24 mM melezitose, 4.8 mM ML848, 24 mM DG783

OC[C@H]1O[C@@](CO)(O[C@H]2O[C@H](CO)[C@@H](O)[C@H](O)[C@H]2O)[C@@H](O[C@H]2O[C@H](CO)[C@@H](O)[C@H](O)[C@H]2O)[C@@H]1O [melezitose]
lower sedimentation rate of erythrocytes [1, 7]: not observed

OC[C@H]1O[C@H](O[C@]2(CCl)O[C@H](CCl)[C@@H](O)[C@@H]2O)[C@H](O)[C@@H](O)[C@H]1Cl [sucralose, 1,6-dichloro-1,6-dideoxy-β-D-fructofuranosyl-4-chloro-4-deoxy-α-D-galactopyranoside]
sedimentation rate of the erythrocytes compared to NF, PBS or saline [2]: lower sedimentation rate | lower sedimentation rate of erythrocytes ([1]; final sucralose concentrations below 5 mM): not observed | sedimentation rate of erythrocytes ([1]; high concentrations of sucralose, ambient temperature): lower sedimentation rate | hemolysis of erythrocytes (coloration of plasma layer after centrifugation) ([3]; high concentration of sucralose, 7 hours of storage, centrifuged 20 min at 3000 rpm): not due to excessive hemolysis | final sucralose concentrations at which significant hemolysis was not seen ([3]; whole blood): ≤ 40 mM | state of whole blood samples at lower concentrations of sucralose ([4]; sucralose powder below 24 mM, ambient temperatures, 6 hours): separation of the erythrocyte and plasma layers | sucralose concentration at which homogeneity of whole blood samples was observed ([4]; sucralose powder, ambient temperatures, 6 hours): ≥ 24 mM | rate of erythrocyte sedimentation versus sucralose concentration ([4]; sucralose powder, final 7.5 mM to 100 mM, K2EDTA blood, 1 hour and 6 hours): inversely proportional to the concentration of sucralose | erythrocyte sedimentation rate for each anticoagulant [5]: reduction of erythrocyte sedimentation rate | erythrocyte sedimentation rate [6]: reduced erythrocyte sedimentation rate

OC[C@H]1O[C@@](CO)(O[C@H]2O[C@H](CO)[C@@H](O)[C@H](O)[C@H]2O)[C@@H](O)[C@@H]1O [sucrose]
lower sedimentation rate of erythrocytes [1, 7]: not observed

OC[C@H]1O[C@H](O[C@H]2O[C@H](CO)[C@@H](O)[C@H](O)[C@H]2O)[C@H](O)[C@@H](O)[C@@H]1O [trehalose]
lower sedimentation rate of erythrocytes [1, 7]: not observed
